Columns and labels:
[1] = molecular target: Glycogen synthase kinase-3 beta (Homo sapiens, UniProt P49841); test: Inhibition of full-length recombinant human His-tagged GSK3B recombinant in baculovirus expression system using Alexa-Fluor tracer-236 incubated for 60 mins by TR-FRET based Lantha-screen Eu kinase assay
[2] = molecular target: Dual specificity tyrosine-phosphorylation-regulated kinase 1A (Homo sapiens, UniProt Q13627)
[3] = Induction of nuclear localization of GFP-tagged NFAT (unknown origin) expressed in mouse muscle fibres by DAPI staining based assay

Sequence of Glycogen synthase kinase-3 beta (P49841 whole entry): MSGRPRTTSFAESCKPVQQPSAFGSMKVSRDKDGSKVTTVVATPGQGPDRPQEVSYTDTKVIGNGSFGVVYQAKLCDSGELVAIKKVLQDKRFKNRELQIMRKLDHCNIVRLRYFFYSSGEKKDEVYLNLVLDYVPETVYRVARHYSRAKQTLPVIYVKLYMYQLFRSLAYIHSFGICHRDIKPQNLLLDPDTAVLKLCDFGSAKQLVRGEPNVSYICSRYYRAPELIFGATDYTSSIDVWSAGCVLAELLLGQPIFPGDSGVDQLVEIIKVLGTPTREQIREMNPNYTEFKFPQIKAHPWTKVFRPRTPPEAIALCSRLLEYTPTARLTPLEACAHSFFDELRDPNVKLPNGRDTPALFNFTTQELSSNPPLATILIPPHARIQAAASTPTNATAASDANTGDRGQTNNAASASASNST

`COc1cccc2c(-c3ccnc(N)n3)c[nH]c12` gave an IC50 ([1]; read-out: IC50) of 15800 nM and an IC50 [2] of 242 nM.
In the case of `Nc1nccc(-c2c[nH]c3c(Cl)cccc23)n1`, the IC50 [1] is reported as “Not Active” and the IC50 [2] is reported as 46 nM.
For `c1ccc2c(-c3c[nH]c4cnccc34)ccnc2c1`, the IC50 [1] was “Not Active” and the IC50 [2] was 277 nM.
With `Fc1cc(-c2c[nH]c3cnccc23)ccn1` the IC50 [1] was “Not Active” and the IC50 [2] was 69 nM.
For `Nc1cc(-c2c[nH]c3cc(Cl)ccc23)ccn1`, the IC50 [1] was “Not Active” and the IC50 [2] was 2940 nM.
Compound `c1cc(-c2cn(CCCN3CCOCC3)c3cnccc23)ccn1` has an IC50 ([1]; read-out: IC50) of 7580 nM and an IC50 [2] of 109 nM.
`Clc1cnccc1-c1c[nH]c2cnccc12` gave an IC50 ([1]; read-out: IC50) of 9610 nM and an IC50 [2] of 61 nM.
For `Nc1cc(-c2c[nH]c3c(Cl)cccc23)ccn1`, the IC50 [1] was “Not Active” and the IC50 [2] was 94 nM.
`COc1ccc2c(-c3ccnc(N)c3)c[nH]c2c1` showed an IC50 ([1]; read-out: IC50) of 12700 nM and an IC50 [2] of 2900 nM.
In the case of `COc1cccc2c(-c3ccnc(N)c3)c[nH]c12`, the IC50 [1] is reported as “Not Active” and the IC50 [2] is reported as 2140 nM.
Work on `c1cc(-c2c[nH]c3cnccc23)ccn1` yielded an IC50 ([1]; read-out: IC50) of 9230 nM and an IC50 [2] of 1 nM.
In the case of `Fc1ccc(Cn2cc(-c3ccncc3)c3ccncc32)cc1`, the IC50 ([1]; read-out: IC50) is reported as 1010 nM and the IC50 [2] is reported as 12 nM.
With `Nc1cc(-c2c[nH]c3cc(C(F)(F)F)ccc23)ccn1` the IC50 [1] was “Not Active” and the IC50 [2] was 4340 nM.
With `Nc1nccc(-c2c[nH]c3c([N+](=O)[O-])cccc23)n1` the IC50 ([1]; read-out: IC50) was 9950 nM.
For `COc1ccc2c(c1)[nH]c1c(C)nccc12` [HARMINE], the IC50 [1] was “Not Active”.
For `Nc1cc(-c2c[nH]c3cnccc23)ccn1`, the IC50 [1] was “Not Active” and the IC50 [2] was 2020 nM.
For `Nc1nccc(-c2c[nH]c3ccccc23)n1`, the IC50 ([1]; read-out: IC50) was 14800 nM and the IC50 [2] was 588 nM.
`Nc1nccc(-c2c[nH]c3cnccc23)n1` gave an IC50 ([1]; read-out: IC50) of 12300 nM and an IC50 [2] of 1 nM.
With `Cc1cc(-c2c[nH]c3cnccc23)ccn1` the IC50 [1] was “Not Active” and the IC50 [2] was 75 nM.
Compound `N#Cc1cccc2c(-c3ccnc(N)n3)c[nH]c12` has an IC50 ([1]; read-out: IC50) of 5160 nM and an IC50 [2] of 138 nM.
Compound `Nc1nccc(-c2c[nH]c3cc(Cl)ccc23)n1` has an IC50 ([1]; read-out: IC50) of 10700 nM and an IC50 [2] of 406 nM.
For `Cn1cc(-c2ccncc2)c2ccncc21`, the IC50 ([1]; read-out: IC50) was 4780 nM and the IC50 [2] was 89 nM.
Work on `Nc1nccc(-c2c[nH]c3cc(C(F)(F)F)ccc23)n1` yielded an IC50 ([1]; read-out: IC50) of 15300 nM and an IC50 [2] of 62 nM.
Work on `N#Cc1cccc2c(-c3ccnc(N)c3)c[nH]c12` yielded an IC50 ([1]; read-out: IC50) of 13900 nM and an IC50 [2] of 790 nM.
With `COc1ccc2c(-c3ccnc(N)n3)c[nH]c2c1` the IC50 ([1]; read-out: IC50) was 7960 nM and the IC50 [2] was 443 nM.
For `c1cc(-c2cn(CCC3CC3)c3cnccc23)ccn1`, the IC50 ([1]; read-out: IC50) was 1140 nM and the IC50 [2] was 8 nM.
With `Cc1nccc(-c2c[nH]c3cnccc23)n1` the IC50 [1] was “Not Active” and the IC50 [2] was 19 nM.
`Nc1nccc(-c2c[nH]c3c(Br)cccc23)n1` gave an IC50 ([1]; read-out: IC50) of 22400 nM and an IC50 [2] of 79 nM.
For `Nc1cc(-c2c[nH]c3c([N+](=O)[O-])cccc23)ccn1`, the IC50 [1] was “Not Active” and the IC50 [2] was 285 nM.
For `COc1cc(-c2c[nH]c3cnccc23)ccn1`, the IC50 [1] was “Not Active” and the IC50 [2] was 351 nM.
With `CC(C)n1cc(-c2ccncc2)c2ccncc21` the IC50 ([1]; read-out: IC50) was 660 nM, the EC50 [3] was 2800 nM and the IC50 [2] was 8 nM.
Compound `c1cncc(-c2c[nH]c3cnccc23)c1` has an IC50 ([1]; read-out: IC50) of 31000 nM and an IC50 [2] of 7960 nM.

— ChEMBL document CHEMBL4033637, “Developing DYRK inhibitors derived from the meridianins as a means of increasing levels of NFAT in the nucleus” (Bioorg Med Chem Lett, 2017)
